Bounds are passed on as bounds.

The test system of one test is MKN45 cells. Description: MKN45 cell proliferation assay (CellTiter-Glo). Format: cell-based. Particulars: Homo sapiens, MKN-45, 72 h; MKN45 cell line; 3 days incubation; at least duplicate experiments; read-out: Prolif. IC50.
The next test addresses T1, RON (Homo sapiens, UniProt Q04912).
T1 sequence (Q04912 913-1400): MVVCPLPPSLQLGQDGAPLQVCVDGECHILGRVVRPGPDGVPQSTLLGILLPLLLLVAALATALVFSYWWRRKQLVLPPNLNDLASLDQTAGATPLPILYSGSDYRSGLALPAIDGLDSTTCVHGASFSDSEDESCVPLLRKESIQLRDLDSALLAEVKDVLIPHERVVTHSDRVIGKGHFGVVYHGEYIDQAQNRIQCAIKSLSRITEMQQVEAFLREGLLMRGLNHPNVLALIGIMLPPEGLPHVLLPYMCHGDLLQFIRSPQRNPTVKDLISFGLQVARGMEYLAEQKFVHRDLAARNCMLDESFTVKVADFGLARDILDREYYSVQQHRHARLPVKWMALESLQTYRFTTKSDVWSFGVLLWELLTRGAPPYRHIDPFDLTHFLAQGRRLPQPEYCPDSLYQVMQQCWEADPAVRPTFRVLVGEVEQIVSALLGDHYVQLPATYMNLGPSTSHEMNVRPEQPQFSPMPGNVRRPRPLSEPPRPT
Description: sfRON cell mechanistic assay (HeLa), phosphorylated RON ELISA. The format is cell-based. Particulars: HeLa cells transfected with sfRON; inhibition of phosphorylated RON; four hours incubation; at least duplicate experiments; read-out: sfRON mech IC50. The gist of the method: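 HeLa cells transiently transfected with sfRON plasmid, then exposed 4 h at 37 °C to a 6-point compound series (typically 10 μM to 3 nM, 0.5% DMSO). Phospho-RON (pY1238/1239) in lysates measured by sandwich ELISA with luminescence. IC50 from 4-parameter fit of percent-of-DMSO-control data, at least duplicate runs.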

As to `COc1ccc(F)c(Cl)c1[C@@H](C)c1c[nH]c2ncc(-c3c[nH]nc3C)cc12` [Example 1, 3-[(1S)-1-(2-Chloro-3-fluoro-6-methoxyphenyl)ethyl]-5-(3-methyl-1H-pyrazol-4-yl)-1H-pyrrolo[2,3-b]pyridine], the IC50 is at most 50 nM in the test with MKN45 cells and 200 to 1000 nM at RON.

On to `COc1ccc(F)c(Cl)c1[C@@H](C)c1c[nH]c2ncc(-c3cn(C)nc3C)cc12` [Example 2, 3-[(1S)-1-(2-Chloro-3-fluoro-6-methoxyphenyl)ethyl]-5-(1,3-dimethyl-1H-pyrazol-4-yl)-1H-pyrrolo[2,3-b]pyridine], for which the IC50 lay in the range of 50 to 200 nM in the test on MKN45 cells and 200 to 1000 nM at RON.

Consider `COc1ccc(F)c(Cl)c1[C@@H](C)c1c[nH]c2ncc(-c3cnn(C)c3C)cc12` [Example 3, 3-[(1S)-1-(2-Chloro-3-fluoro-6-methoxyphenyl)ethyl]-5-(1,5-dimethyl-1H-pyrazol-4-yl)-1H-pyrrolo[2,3-b]pyridine], for which the IC50 with MKN45 cells is at most 50 nM; at RON it was 200 to 1000 nM.

Turning to `COc1ccc(F)c(Cl)c1[C@@H](C)c1c[nH]c2ncc(-c3c(C)nn(C)c3C)cc12` [Example 4, 3-[(1S)-1-(2-Chloro-3-fluoro-6-methoxyphenyl)ethyl]-5-(1,3,5-trimethyl-1H-pyrazol-4-yl)-1H-pyrrolo[2,3-b]pyridine], the IC50 in the test with MKN45 cells is 200 to 1000 nM; at RON, above 1000 nM.

Regarding `COc1ccc(F)c(Cl)c1[C@@H](C)c1c[nH]c2ncc(-c3c(C)nn(CC(C)(C)O)c3C)cc12` [Example 5, 1-(4-{3-[(1S)-1-(2-Chloro-3-fluoro-6-methoxyphenyl)ethyl]-1H-pyrrolo[2,3-b]pyridin-5-yl}-3,5-dimethyl-1H-pyrazol-1-yl)-2-methylpropan-2-ol], the IC50 in the test on MKN45 cells is 50 to 200 nM; on RON, above 1000 nM.

In the case of `COc1ccc(F)c(Cl)c1[C@@H](C)c1c[nH]c2ncc(-c3c(C)nn([C@H]4CC[C@H](O)CC4)c3C)cc12` [Example 6, trans-4-(4-{3-[(1S)-1-(2-Chloro-3-fluoro-6-methoxyphenyl)ethyl]-1H-pyrrolo[2,3-b]pyridin-5-yl}-3,5-dimethyl-1H-pyrazol-1-yl)cyclohexanol], the half-inhibitory concentration (IC50) in the test on MKN45 cells was at most 50 nM; at RON, 200 to 1000 nM.

In the case of `COc1ccc(F)c(Cl)c1[C@@H](C)c1c[nH]c2ncc(-c3cn(CC(C)(C)O)nc3C)cc12` [Example 7, 1-(4-{3-[(1S)-1-(2-Chloro-3-fluoro-6-methoxyphenyl)ethyl]-1H-pyrrolo[2,3-b]pyridin-5-yl}-3-methyl-1H-pyrazol-1-yl)-2-methylpropan-2-ol], the IC50 with MKN45 cells was at most 50 nM; on RON, 200 to 1000 nM.

Take `COc1ccc(F)c(Cl)c1[C@@H](C)c1c[nH]c2ncc(-c3cnn(CC(C)(C)O)c3C)cc12` [Example 8, 1-(4-{3-[(1S)-1-(2-Chloro-3-fluoro-6-methoxyphenyl)ethyl]-1H-pyrrolo[2,3-b]pyridin-5-yl}-5-methyl-1H-pyrazol-1-yl)-2-methylpropan-2-ol]: the IC50 with MKN45 cells is at most 50 nM; on RON, 200 to 1000 nM.

As to `COc1ccc(F)c(Cl)c1[C@@H](C)c1c[nH]c2ncc(-c3cnn(C[C@H](O)CO)c3C)cc12` [Example 10, (2S)-3-(4-{3-[(1S)-1-(2-Chloro-3-fluoro-6-methoxyphenyl)ethyl]-1H-pyrrolo[2,3-b]pyridin-5-yl}-5-methyl-1H-pyrazol-1-yl)propane-1,2-diol], the IC50 was at most 50 nM in the test on MKN45 cells and at most 200 nM at RON.

Take `CCc1c(-c2cnc3[nH]cc([C@H](C)c4c(OC)ccc(F)c4Cl)c3c2)cnn1CC(C)(C)O` [Example 11, 1-(4-{3-[(1S)-1-(2-Chloro-3-fluoro-6-methoxyphenyl)ethyl]-1H-pyrrolo[2,3-b]pyridin-5-yl}-5-ethyl-1H-pyrazol-1-yl)-2-methylpropan-2-ol]: the IC50 with MKN45 cells lay within 50 to 200 nM; on RON it was 200 to 1000 nM.

Consider `CCc1nn(CC(C)(C)O)cc1-c1cnc2[nH]cc([C@H](C)c3c(OC)ccc(F)c3Cl)c2c1` [Example 12, 1-(4-{3-[(1S)-1-(2-Chloro-3-fluoro-6-methoxyphenyl)ethyl]-1H-pyrrolo[2,3-b]pyridin-5-yl}-3-ethyl-1H-pyrazol-1-yl)-2-methylpropan-2-ol], for which the half-maximal inhibitory concentration (IC50) in the test on MKN45 cells lay within 50 to 200 nM; at RON, 200 to 1000 nM.

As for `COc1ccc(F)c(Cl)c1[C@@H](C)c1c[nH]c2ncc(-c3cnn([C@H]4CC[C@H](C(=O)N(C)C)CC4)c3C)cc12` [Example 14, Trans-4-(4-{3-[(1S)-1-(2-chloro-3-fluoro-6-methoxyphenyl)ethyl]-1H-pyrrolo[2,3-b]pyridin-5-yl}-5-methyl-1H-pyrazol-1-yl)-N,N-dimethylcyclohexanecarboxamide], the IC50 was at most 50 nM in the test with MKN45 cells and 200 to 1000 nM at RON.

Take `CNC(=O)[C@H]1CC[C@H](n2ncc(-c3cnc4[nH]cc([C@H](C)c5c(OC)ccc(F)c5Cl)c4c3)c2C)CC1` [Example 17, trans-4-(4-{3-[(1S)-1-(2-Chloro-3-fluoro-6-methoxyphenyl)ethyl]-1H-pyrrolo[2,3-b]pyridin-5-yl}-5-methyl-1H-pyrazol-1-yl)-N-methyl cyclohexanecarboxamide]: the IC50 in the test on MKN45 cells is at most 50 nM; on RON, at most 200 nM.

For the compound `COc1ccc(F)c(Cl)c1[C@@H](C)c1c[nH]c2ncc(-c3cnn([C@H]4CC[C@H](C(N)=O)CC4)c3C)cc12` [Example 18, trans-4-(4-{3-[(1S)-1-(2-chloro-3-fluoro-6-methoxyphenyl)ethyl]-1H-pyrrolo[2,3-b]pyridin-5-yl}-5-methyl-1H-pyrazol-1-yl)cyclohexanecarboxamide], the IC50 with MKN45 cells is at most 50 nM; at RON it was 200 to 1000 nM.

In the case of `COc1ccc(F)c(Cl)c1[C@@H](C)c1c[nH]c2ncc(-c3cn([C@H]4CC[C@H](C(N)=O)CC4)nc3C)cc12` [Example 19, trans-4-(4-{3-[(1S)-1-(2-Chloro-3-fluoro-6-methoxyphenyl)ethyl]-1H-pyrrolo[2,3-b]pyridin-5-yl}-3-methyl-1H-pyrazol-1-yl)cyclohexanecarboxamide], the IC50 with MKN45 cells is at most 50 nM; at RON it was at most 200 nM.

As for `CNC(=O)[C@H]1CC[C@H](n2cc(-c3cnc4[nH]cc([C@H](C)c5c(OC)ccc(F)c5Cl)c4c3)c(C)n2)CC1` [Example 22, trans-4-(4-{3-[(1S)-1-(2-Chloro-3-fluoro-6-methoxyphenyl)ethyl]-1H-pyrrolo[2,3-b]pyridin-5-yl}-3-methyl-1H-pyrazol-1-yl)-N-methylcyclohexanecarboxamide], the IC50 in the test on MKN45 cells was at most 50 nM; at RON, at most 200 nM.

On to `COc1ccc(F)c(Cl)c1[C@@H](C)c1c[nH]c2ncc(-c3cnn([C@H]4CC[C@H](O)CC4)c3C)cc12` [Example 27, trans-4-(4-{3-[(1S)-1-(2-Chloro-3-fluoro-6-methoxyphenyl)ethyl]-1H-pyrrolo[2,3-b]pyridin-5-yl}-5-methyl-1H-pyrazol-1-yl)cyclohexanol], for which the IC50 in the test with MKN45 cells was at most 50 nM; on RON it was 200 to 1000 nM.

As to `COc1ccc(F)c(Cl)c1[C@@H](C)c1c[nH]c2ncc(-c3cnn([C@@H]4C[C@@H](O)[C@@H](O)C4)c3C)cc12` [Example 31, (1R,2S,4S)-4-(4-{3-[(1S)-1-(2-Chloro-3-fluoro-6-methoxyphenyl)ethyl]-1H-pyrrolo[2,3-b]pyridin-5-yl}-5-methyl-1H-pyrazol-1-yl)cyclopentane-1,2-diol], the IC50 with MKN45 cells was at most 50 nM; at RON it was 200 to 1000 nM.

Regarding `COc1ccc(F)c(Cl)c1[C@@H](C)c1c[nH]c2ncc(-c3cn([C@@H]4C[C@@H](O)[C@@H](O)C4)nc3C)cc12` [Example 32, (1R,2S,4S)-4-(4-{3-[(1S)-1-(2-Chloro-3-fluoro-6-methoxyphenyl)ethyl]-1H-pyrrolo[2,3-b]pyridin-5-yl}-3-methyl-1H-pyrazol-1-yl)cyclopentane-1,2-diol], the IC50 was at most 50 nM in the test on MKN45 cells and at most 200 nM at RON.

Turning to `COc1ccc(F)c(Cl)c1[C@@H](C)c1c[nH]c2ncc(-c3c(C)nn([C@@H]4C[C@@H](O)[C@@H](O)C4)c3C)cc12` [Example 33, (1R,2S,4S)-4-(4-{3-[(1S)-1-(2-Chloro-3-fluoro-6-methoxyphenyl)ethyl]-1H-pyrrolo[2,3-b]pyridin-5-yl}-3,5-dimethyl-1H-pyrazol-1-yl)cyclopentane-1,2-diol], the 50% inhibitory concentration (IC50) with MKN45 cells is at most 50 nM; at RON, 200 to 1000 nM.

Turning to `COc1ccc(F)c(Cl)c1[C@@H](C)c1c[nH]c2ncc(-c3cn(C[C@@H](O)CO)nc3C(F)(F)F)cc12` [Example 34, (2R)-3-[4-{3-[(1S)-1-(2-Chloro-3-fluoro-6-methoxyphenyl)ethyl]-1H-pyrrolo[2,3-b]pyridin-5-yl}-3-(trifluoromethyl)-1H-pyrazol-1-yl]propane-1,2-diol], the IC50 in the test with MKN45 cells was 50 to 200 nM; on RON it was above 1000 nM.

With `COc1ccc(F)c(Cl)c1[C@@H](C)c1c[nH]c2ncc(-c3cnn(C[C@@H](O)CO)c3C(F)(F)F)cc12` [Example 35, (2R)-3-[4-{3-[(1S)-1-(2-Chloro-3-fluoro-6-methoxyphenyl)ethyl]-1H-pyrrolo[2,3-b]pyridin-5-yl}-5-(trifluoromethyl)-1H-pyrazol-1-yl]propane-1,2-diol], the IC50 is 50 to 200 nM in the test on MKN45 cells and above 1000 nM at RON.

For the origin of these results see US8445510B2, “Fused bicyclic kinase inhibitors” (OSI Pharmaceuticals, LLC, priority 2011, dated 2013).
